± gives the expanded uncertainty stated by the source.

Series [1] can be described thus: Molar enthalpy of transition or fusion. As to conditions: Crystal; DSC.
The conditions of series [2]: Crystal; DTA.

Consider `O=C(Nc1ccc(F)cc1F)c1cccnc1Oc1cccc(C(F)(F)F)c1`, for which, in series [1], the “Molar enthalpy of transition or fusion” value is 9.42 ± 0.22 kcal/mol. Further, the Normal melting temperature in series [2] amounted to 162.37 ± 0.61 °C.
